Source: patent US20240099299A1, “ANTIMICROBIAL COMPOSITIONS AND METHODS FOR THEIR PREPARATION AND USE IN TREATING PLANT DISEASES” (priority 2021, published 2024)
Where a name gives a salt, the structure may show the parent alone.

How the values were obtained:
[1] = Visual monitoring of homogeneity of 11,000 ppm OTC test solutions in pH 2 water; assay type: physicochemical; settings: 11,000 ppm in pH 2 water, 10× magnification, immediately upon preparation at 75° F.; HCl
Procedure: Next, OTC solutions were prepared by first reducing the pH of water to pH 2 using hydrochloric acid. 11.0 g of PG-OTC (>95%) and non-sterile, nS-nPG-OTC (putatively 95%) each were dissolved into 1.0 L of the pH 2 water to generate 11,000 ppm test solutions, which then were monitored visually at 10× magnification. […] To elucidate the nonhomogeneous nature of the nS-nPG-OTC solutions, visualization was performed at 60× magnification, as is shown in FIG. 8 and wherein an abundance of actively growing needle-like crystals having lengths of approximately 10-250 μm are visible. These needle-like crystals likely comprise OTC and/or OTC and one or more impurities.

[2] = Uptake (injection time) of OTC solutions injected into rootstock of Valencia citrus trees; assay type: in vivo; settings: for Absorption of solution by trees: overall conclusions from functional testing, nS-nPG-OTC: after the first 50 mL
Procedure: The test article solutions (11,000 ppm) were prepared as above and were fluidly pressurized into latex injection devices (FLexInect™, TJ Biotech LLC, Buffalo, SD) and then were injected into rootstock of uniform, commercially grown, Valencia citrus trees. The injection devices were monitored to measure uptake rates of the solutions.
Table 2 presents the results of Trial 1, which used trees (n=10) having trunk diameters between 2.125″ and 3.00″.
Table 3 presents the results of Trial 2, which used trees (n=10) having trunk diameters between 3.00″ and 4.25″. 100 mL of the test solutions were injected with the ambient temperature between 80° F. and 90° F.
Table 4 presents the results of Trial 3, which used trees (n=30) having trunk diameters between 3.00″ and 4.25″. Up to 100 mL of the test solutions were injected with the ambient temperature <70° F., at which temperatures transpiration in the vascular system is reduced. In this trial, the injections were stopped at 120 minutes regardless of if injections were complete.

[3] = OTC residues in fruit after injection; assay type: in vivo; settings: when using PG-OTC solutions
Valencia orange tree = assay: Study 1: comparison of injection and spray applications, tree vigor rating; assay type: in vivo; settings: Study 1 conclusion
Procedure: Tree Vigor Ratings: 1=Lowest Vigor; 5=Highest Vigor. LSD stands for least significant difference and C.V. stands for Coefficient of Variance.
For Treatment 1, a 5,500 ppm solution of PG-OTC was prepared using distilled water. This solution then was acidified to pH 2 using hydrochloric acid. […] For Treatment 2, 2.5 g of PG-OTC was dissolved in 2 gallons of water. The resultant solution was sprayed onto the foliage of the trees at a rate of 1 quart (0.3125 g OTC·HCl) per tree (n=9). Vigor ratings were performed 60 days after application of treatments.

Row | Compound | Homogeneity of solution [1] | Time (Minutes) of injection/uptake ([2]; Trial 1: 50 mL of 11,000 ppm solution, trunk diameter 2.125-3.00 in, 80-90° F., n=10, HCl) [b Minutes] | Time (Minutes) of injection/uptake ([2]; Trial 2: 100 mL of 11,000 ppm solution, trunk diameter 3.00-4.25 in, 80-90° F., n=10, HCl) [b Minutes] | Time (Minutes) of injection/uptake ([2]; Trial 3: up to 100 mL of 11,000 ppm solution, trunk diameter 3.00-4.25 in, <70° F., stopped at 120 minutes, n=30, HCl) [b Minutes] | Absorption of solution by trees ([2]; HCl) | Residues in the fruit (within tolerance) [3] [PPB] | Effectiveness of trunk injection versus application of unacidified solution to foliage by spraying (Valencia orange tree) | Time (Minutes) of injection/uptake ([2]; Trial 1: 50 mL of 11,000 ppm solution, trunk diameter 2.125-3.00 in, 80-90° F., n=10) [a Minutes] | Time (Minutes) of injection/uptake ([2]; Trial 2: 100 mL of 11,000 ppm solution, trunk diameter 3.00-4.25 in, 80-90° F., n=10) [a Minutes] | Time (Minutes) of injection/uptake ([2]; Trial 3: up to 100 mL of 11,000 ppm solution, trunk diameter 3.00-4.25 in, <70° F., stopped at 120 minutes, n=30) [a Minutes] | Absorption of solution by trees [2]
1 | CN(C)[C@@H]1C(O)=C(C(N)=O)C(=O)[C@@]2(O)C(O)=C3C(=O)c4c(O)cccc4[C@@](C)(O)[C@H]3[C@H](O)[C@@H]12 [PG-OTC, Oxytetracycline HCl] | essentially homogeneous | 8.4 | 18.2 | 81.1 | readily absorbed | ≤ 10 | more effective | – | – | – | –
2 | CN(C)[C@@H]1C(O)=C(C(N)=O)C(=O)[C@@]2(O)C(O)=C3C(=O)c4c(O)cccc4[C@@](C)(O)[C@H]3[C@H](O)[C@@H]12 [nS-nPG-OTC, Oxytetracycline] | – | – | – | – | – | – | – | 15.3 | 134.7 | 117.33 | marked decrease in absorption rate
